The results in this text go back to ChEMBL document CHEMBL5608163, “Structure modification of anoplin for fighting resistant bacteria” (Eur J Med Chem, 2024).

In general, MIC refers to the smallest concentration in the dilution series that meets the test's criterion for growth inhibition.

≈ marks a conversion by molar mass, not a printed value. Bridge positions count the residues as written; N and C are the ends. Square brackets hold non-standard residues; d marks the D form. Peptide text beside a SMILES is read from it. I, II: the chains in the order shown. * marks the point of attachment. ξ: configuration not given here. Lauroyl = CCCCCCCCCCCC(=O)*; Decanoyl = CCCCCCCCCC(=O)*; Octanoyl = CCCCCCCC(=O)*; Hexanoyl = CCCCCC(=O)*; ξK = NCCCCC(N)C(=O)O; Butyryl = CCCC(=O)*

The test system of one series is Staphylococcus aureus. Description: Antibacterial activity against Staphylococcus aureus ATCC 25923 assessed as reduction in bacterial cell growth incubated for 16 to 24 hrs by CLSI-protocol based Mueller-Hinton Broth micro-dilution method. It is filed as functional. The settings on record: time 16-24 hrs. Background: Dilution methods test growth across graded concentrations, often in twofold steps.

For another series, the system named is Bacillus subtilis. Description: Antibacterial activity against Bacillus subtilis ATCC 23857 assessed as reduction in bacterial cell growth incubated for 16 to 24 hrs by CLSI-protocol based Mueller-Hinton Broth micro-dilution method. It is filed as functional. Conditions: time 16-24 hrs.
The next series has as its system Escherichia coli. Description: Antibacterial activity against Escherichia coli ATCC 25922 assessed as reduction in bacterial cell growth incubated for 16 to 24 hrs by CLSI-protocol based Mueller-Hinton Broth micro-dilution method. Conditions: time 16-24 hrs. It is filed as functional.
A further series relates to Pseudomonas aeruginosa. Description: Antibacterial activity against Pseudomonas aeruginosa ATCC 27853 assessed as reduction in bacterial cell growth incubated for 16 to 24 hrs by CLSI-protocol based Mueller-Hinton Broth micro-dilution method. The settings on record: time 16-24 hrs. It is filed as functional.
A further series deals with Klebsiella pneumoniae. Description: Antibacterial activity against Klebsiella pneumoniae ATCC 700603 assessed as reduction in bacterial cell growth incubated for 16 to 24 hrs by CLSI-protocol based Mueller-Hinton Broth micro-dilution method. It is filed as functional. Conditions: time 16-24 hrs.
Another series concerns Erythrocyte. Description: Hemolytic activity in human erythrocyte incubated for 70 mins by absorbance based assay. It is filed as toxicity, cell-based. Conditions: 1.167 h.

Take `CCCCCCCC(=O)NCC(=O)N[C@@H](CC(C)C)C(=O)N[C@@H](CC(C)C)C(=O)N[C@@H](CCCCN)C(=O)N[C@@H](CCCNC(=N)N)C(=O)N[C@H](C(=O)N[C@@H](CCCCN)C(=O)N[C@H](C(=O)N[C@@H](CC(C)C)C(=O)N[C@@H](CC(C)C)C(=O)NCCCCC(NC(=O)[C@H](CC(C)C)NC(=O)[C@H](CC(C)C)NC(=O)[C@@H](NC(=O)[C@H](CCCCN)NC(=O)[C@@H](NC(=O)[C@H](CCCNC(=N)N)NC(=O)[C@H](CCCCN)NC(=O)[C@H](CC(C)C)NC(=O)[C@H](CC(C)C)NC(=O)CNC(=O)CCCCCCC)[C@@H](C)CC)[C@@H](C)O)C(N)=O)[C@@H](C)O)[C@@H](C)CC` (some centres not stated) (I: Octanoyl-GLLKRIKTLL[ξK]-NH2 / II: Octanoyl-GLLKRIKTLL; amide I:11-II:C): the minimal inhibitory concentration (MIC) with Staphylococcus aureus is 64 µM (≈ 171 µg/mL); with Bacillus subtilis it was 32 µM (≈ 85.5 µg/mL); in the series with Escherichia coli, 16 µM (≈ 42.7 µg/mL); in the series on Pseudomonas aeruginosa, 128 µM (≈ 342 µg/mL); in the series on Klebsiella pneumoniae, 32 µM (≈ 85.5 µg/mL). Also, in the series with Erythrocyte, the HC10 was found to be 5.67 µM.
Molecule `CCCCCC(=O)NCC(=O)N[C@@H](CC(C)C)C(=O)N[C@@H](CC(C)C)C(=O)N[C@@H](CCCCN)C(=O)N[C@@H](CCCNC(=N)N)C(=O)N[C@H](C(=O)N[C@@H](CCCCN)C(=O)N[C@H](C(=O)N[C@@H](CC(C)C)C(=O)N[C@@H](CC(C)C)C(=O)NCCCC[C@H](NC(=O)[C@H](CCCCNC(=O)[C@H](CC(C)C)NC(=O)[C@H](CC(C)C)NC(=O)[C@@H](NC(=O)[C@H](CCCCN)NC(=O)[C@@H](NC(=O)[C@H](CCCNC(=N)N)NC(=O)[C@H](CCCCN)NC(=O)[C@H](CC(C)C)NC(=O)[C@H](CC(C)C)NC(=O)CNC(=O)CCCCC)[C@@H](C)CC)[C@@H](C)O)NC(=O)[C@H](CC(C)C)NC(=O)[C@H](CC(C)C)NC(=O)[C@@H](NC(=O)[C@H](CCCCN)NC(=O)[C@@H](NC(=O)[C@H](CCCNC(=N)N)NC(=O)[C@H](CCCCN)NC(=O)[C@H](CC(C)C)NC(=O)[C@H](CC(C)C)NC(=O)CNC(=O)CCCCC)[C@@H](C)CC)[C@@H](C)O)C(N)=O)[C@@H](C)O)[C@@H](C)CC` (I: Hexanoyl-GLLKRIKTLLKK-NH2 / II: Hexanoyl-GLLKRIKTLL / III: Hexanoyl-GLLKRIKTLL; amide I:11-III:C, I:12-II:C) displayed an HC10 in the series on Erythrocyte of 0.71 µM.
The same measure, in the same setting: in the case of `CCCCCCCCCC(=O)NCC(=O)N[C@@H](CC(C)C)C(=O)N[C@@H](CC(C)C)C(=O)N[C@@H](CCCCN)C(=O)N[C@@H](CCCNC(=N)N)C(=O)N[C@H](C(=O)N[C@@H](CCCCN)C(=O)N[C@H](C(=O)N[C@@H](CC(C)C)C(=O)N[C@@H](CC(C)C)C(=O)NCCCC[C@H](NC(=O)[C@H](CCCCNC(=O)[C@H](CC(C)C)NC(=O)[C@H](CC(C)C)NC(=O)[C@@H](NC(=O)[C@H](CCCCN)NC(=O)[C@@H](NC(=O)[C@H](CCCNC(=N)N)NC(=O)[C@H](CCCCN)NC(=O)[C@H](CC(C)C)NC(=O)[C@H](CC(C)C)NC(=O)CNC(=O)CCCCCCCCC)[C@@H](C)CC)[C@@H](C)O)NC(=O)[C@H](CC(C)C)NC(=O)[C@H](CC(C)C)NC(=O)[C@@H](NC(=O)[C@H](CCCCN)NC(=O)[C@@H](NC(=O)[C@H](CCCNC(=N)N)NC(=O)[C@H](CCCCN)NC(=O)[C@H](CC(C)C)NC(=O)[C@H](CC(C)C)NC(=O)CNC(=O)CCCCCCCCC)[C@@H](C)CC)[C@@H](C)O)C(N)=O)[C@@H](C)O)[C@@H](C)CC` (I: Decanoyl-GLLKRIKTLLKK-NH2 / II: Decanoyl-GLLKRIKTLL / III: Decanoyl-GLLKRIKTLL; amide I:11-III:C, I:12-II:C) [listing 1 of 2 here] it was 146.63 µM.
`CCCCCCCCCC(=O)NCC(=O)N[C@@H](CC(C)C)C(=O)N[C@@H](CC(C)C)C(=O)N[C@@H](CCCCN)C(=O)N[C@@H](CCCNC(=N)N)C(=O)N[C@H](C(=O)N[C@@H](CCCCN)C(=O)N[C@H](C(=O)N[C@@H](CC(C)C)C(=O)N[C@@H](CC(C)C)C(=O)NCCCC[C@H](NC(=O)[C@H](CCCCNC(=O)[C@H](CC(C)C)NC(=O)[C@H](CC(C)C)NC(=O)[C@@H](NC(=O)[C@H](CCCCN)NC(=O)[C@@H](NC(=O)[C@H](CCCNC(=N)N)NC(=O)[C@H](CCCCN)NC(=O)[C@H](CC(C)C)NC(=O)[C@H](CC(C)C)NC(=O)CNC(=O)CCCCCCCCC)[C@@H](C)CC)[C@@H](C)O)NC(=O)[C@H](CC(C)C)NC(=O)[C@H](CC(C)C)NC(=O)[C@@H](NC(=O)[C@H](CCCCN)NC(=O)[C@@H](NC(=O)[C@H](CCCNC(=N)N)NC(=O)[C@H](CCCCN)NC(=O)[C@H](CC(C)C)NC(=O)[C@H](CC(C)C)NC(=O)CNC(=O)CCCCCCCCC)[C@@H](C)CC)[C@@H](C)O)C(N)=O)[C@@H](C)O)[C@@H](C)CC` (I: Decanoyl-GLLKRIKTLLKK-NH2 / II: Decanoyl-GLLKRIKTLL / III: Decanoyl-GLLKRIKTLL; amide I:11-III:C, I:12-II:C) [listing 2 of 2 here]: the MIC in the series with Staphylococcus aureus worked out at 128 µM (≈ 531 µg/mL); with Bacillus subtilis it was 56 µM (≈ 232 µg/mL); with Escherichia coli, 128 µM (≈ 531 µg/mL); in the series on Pseudomonas aeruginosa, 32 µM (≈ 133 µg/mL); in the series with Klebsiella pneumoniae, 32 µM (≈ 133 µg/mL).
In the series with Erythrocyte, `CC[C@H](C)[C@H](NC(=O)[C@H](CCCNC(=N)N)NC(=O)[C@H](CCCCN)NC(=O)[C@H](CC(C)C)NC(=O)[C@H](CC(C)C)NC(=O)CN)C(=O)N[C@@H](CCCCN)C(=O)N[C@H](C(=O)N[C@@H](CC(C)C)C(=O)N[C@@H](CC(C)C)C(=O)NCCCC[C@H](NC(=O)[C@H](CCCCNC(=O)[C@H](CC(C)C)NC(=O)[C@H](CC(C)C)NC(=O)[C@@H](NC(=O)[C@H](CCCCN)NC(=O)[C@@H](NC(=O)[C@H](CCCNC(=N)N)NC(=O)[C@H](CCCCN)NC(=O)[C@H](CC(C)C)NC(=O)[C@H](CC(C)C)NC(=O)CN)[C@@H](C)CC)[C@@H](C)O)NC(=O)[C@H](CC(C)C)NC(=O)[C@H](CC(C)C)NC(=O)[C@@H](NC(=O)[C@H](CCCCN)NC(=O)[C@@H](NC(=O)[C@H](CCCNC(=N)N)NC(=O)[C@H](CCCCN)NC(=O)[C@H](CC(C)C)NC(=O)[C@H](CC(C)C)NC(=O)CN)[C@@H](C)CC)[C@@H](C)O)C(N)=O)[C@@H](C)O` (I: H-GLLKRIKTLLKK-NH2 / II: H-GLLKRIKTLL / III: H-GLLKRIKTLL; amide I:11-III:C, I:12-II:C) had an HC10 of 2.53 µM.
In the series with Erythrocyte, `CCCCCCCC(=O)NCC(=O)N[C@@H](CC(C)C)C(=O)N[C@@H](CC(C)C)C(=O)N[C@@H](CCCCN)C(=O)N[C@@H](CCCNC(=N)N)C(=O)N[C@H](C(=O)N[C@@H](CCCCN)C(=O)N[C@H](C(=O)N[C@@H](CC(C)C)C(=O)N[C@@H](CC(C)C)C(=O)NCCCC[C@H](NC(=O)[C@H](CCCCNC(=O)[C@H](CC(C)C)NC(=O)[C@H](CC(C)C)NC(=O)[C@@H](NC(=O)[C@H](CCCCN)NC(=O)[C@@H](NC(=O)[C@H](CCCNC(=N)N)NC(=O)[C@H](CCCCN)NC(=O)[C@H](CC(C)C)NC(=O)[C@H](CC(C)C)NC(=O)CNC(=O)CCCCCCC)[C@@H](C)CC)[C@@H](C)O)NC(=O)[C@H](CC(C)C)NC(=O)[C@H](CC(C)C)NC(=O)[C@@H](NC(=O)[C@H](CCCCN)NC(=O)[C@@H](NC(=O)[C@H](CCCNC(=N)N)NC(=O)[C@H](CCCCN)NC(=O)[C@H](CC(C)C)NC(=O)[C@H](CC(C)C)NC(=O)CNC(=O)CCCCCCC)[C@@H](C)CC)[C@@H](C)O)C(N)=O)[C@@H](C)O)[C@@H](C)CC` (I: Octanoyl-GLLKRIKTLLKK-NH2 / II: Octanoyl-GLLKRIKTLL / III: Octanoyl-GLLKRIKTLL; amide I:11-III:C, I:12-II:C) came in with an HC10 of 59.73 µM.
With `CCCC(=O)NCC(=O)N[C@@H](CC(C)C)C(=O)N[C@@H](CC(C)C)C(=O)N[C@@H](CCCCN)C(=O)N[C@@H](CCCNC(=N)N)C(=O)N[C@H](C(=O)N[C@@H](CCCCN)C(=O)N[C@H](C(=O)N[C@@H](CC(C)C)C(=O)N[C@@H](CC(C)C)C(=O)NCCCC[C@H](NC(=O)[C@H](CCCCNC(=O)[C@H](CC(C)C)NC(=O)[C@H](CC(C)C)NC(=O)[C@@H](NC(=O)[C@H](CCCCN)NC(=O)[C@@H](NC(=O)[C@H](CCCNC(=N)N)NC(=O)[C@H](CCCCN)NC(=O)[C@H](CC(C)C)NC(=O)[C@H](CC(C)C)NC(=O)CNC(=O)CCC)[C@@H](C)CC)[C@@H](C)O)NC(=O)[C@H](CC(C)C)NC(=O)[C@H](CC(C)C)NC(=O)[C@@H](NC(=O)[C@H](CCCCN)NC(=O)[C@@H](NC(=O)[C@H](CCCNC(=N)N)NC(=O)[C@H](CCCCN)NC(=O)[C@H](CC(C)C)NC(=O)[C@H](CC(C)C)NC(=O)CNC(=O)CCC)[C@@H](C)CC)[C@@H](C)O)C(N)=O)[C@@H](C)O)[C@@H](C)CC` (I: Butyryl-GLLKRIKTLLKK-NH2 / II: Butyryl-GLLKRIKTLL / III: Butyryl-GLLKRIKTLL; amide I:11-III:C, I:12-II:C), the HC10 with Erythrocyte is 3.18 µM.
For `CCCCCCCCCCCC(=O)NCC(=O)N[C@@H](CC(C)C)C(=O)N[C@@H](CC(C)C)C(=O)N[C@@H](CCCCN)C(=O)N[C@@H](CCCNC(=N)N)C(=O)N[C@H](C(=O)N[C@@H](CCCCN)C(=O)N[C@H](C(=O)N[C@@H](CC(C)C)C(=O)N[C@@H](CC(C)C)C(=O)NCCCC[C@H](NC(=O)[C@H](CCCCNC(=O)[C@H](CC(C)C)NC(=O)[C@H](CC(C)C)NC(=O)[C@@H](NC(=O)[C@H](CCCCN)NC(=O)[C@@H](NC(=O)[C@H](CCCNC(=N)N)NC(=O)[C@H](CCCCN)NC(=O)[C@H](CC(C)C)NC(=O)[C@H](CC(C)C)NC(=O)CNC(=O)CCCCCCCCCCC)[C@@H](C)CC)[C@@H](C)O)NC(=O)[C@H](CC(C)C)NC(=O)[C@H](CC(C)C)NC(=O)[C@@H](NC(=O)[C@H](CCCCN)NC(=O)[C@@H](NC(=O)[C@H](CCCNC(=N)N)NC(=O)[C@H](CCCCN)NC(=O)[C@H](CC(C)C)NC(=O)[C@H](CC(C)C)NC(=O)CNC(=O)CCCCCCCCCCC)[C@@H](C)CC)[C@@H](C)O)C(N)=O)[C@@H](C)O)[C@@H](C)CC` (I: Lauroyl-GLLKRIKTLLKK-NH2 / II: Lauroyl-GLLKRIKTLL / III: Lauroyl-GLLKRIKTLL; amide I:11-III:C, I:12-II:C), the HC10 in the series on Erythrocyte was 103.52 µM.
